Assay results: patent publication US4710489A, “Glutathione delivery system” (Cornell Research Foundation, Inc., priority 1985, dated 1987)

Columns and labels:
[1] = test system: GSH level in the liver and in the kidney; test: GSH level in liver and kidney of starved mice (Example 6); format: in vivo; settings: i.p. 10 mmol/kg, 2 to 3 hours after the administration
Description: The test compound was dissolved in sterile water to give a test solution. Groups of 3 mice, each having a body weight of 20 to 25 g, were starved over a period of 24 hours and treated intraperitoneally with a dose of 10 mmol/kg of the test compound. Mice were dissected by every two hours, and the liver and kidney were taken out. GSH analysis was performed on each of the organs.

[2] = test system: GSH levels in the liver and in the kidney; test: GSH levels in liver and kidney after 35S-labeled test compound, GSH synthesis inhibited by buthionine sulfoximine (Example 5); format: in vivo; settings: mice, i.p. 7.5 mmol/kg, two hours after treatment, buthionine sulfoximine 2 mmol/kg 14 and 4 hours before dissection
Description: Groups of 3 or 4 mice, each having a body weight of 18 to 22g, were starved over a period of 12 hours and treated intraperitoneally with a dose of 7.5 mmol/kg of the test compound labeled by ^35 S (GSH labeled by ^35 S was used as the starting material). Two hours after the treatment, the test mice were dissected, and the liver and kidney were taken out. These organs were homogenized in 5 fold volume of 5% sulfosalicylic acid and centrifuged over a period of 5 minutes to give 0.05 ml of a supernatant fluid. The supernatant fluid was admixed with 0.95 ml of water and 4 ml of monofluorine scintillation fluid, and the ^35 S content was assayed by the use of an LKB scintillation counter. On the other hand, the supernatant fluid was treated with monobromobimane and subjected to HPLC to determine the amount of the test compound. The intracellular GSH synthesis was inhibited by administering intraperitoneally 2 mmol/kg of buthionine sulfoximine 14 hours and 4 hours before the dissection.

[3] = test system: glutathione level of the liver and kidney; test: Glutathione levels of liver and kidney of fasted mice given glutathione ester or glutathione (Example 1, Comparative Example 1); format: in vivo; settings: for glutathione in the kidney / glutathione level of the liver: fasted mice, i.p. 10 millimoles per kilogram, 2 hours after administration, vs saline controls
Description: A solution of the glutathione ester was prepared in aseptic water. […] At intervals of 2 hours, as shown in FIGS. 1(a) and (b), the animals were decapitated and the liver and kidney tissues were removed and analyzed for glutathione. Using groups of 3 mice each, values are given as means ±S.D.

[4] = test system: glutamic-pyruvic acid transaminase (GPT) activity in serum; test: Serum GPT activity after acetaminophen (Example 9, Table 1); format: in vivo, Male ICR mice; settings: half an hour after acetaminophen 2.5 mmol/kg, blood 8 hours after acetaminophen, ± SD
Description: Male ICR mice, each having a body weight of 30 to 40 g, were starved over a period of 15 hours and intraperitoneally treated with 2.5 mmol/kg of acetaminophen. The acetaminophen was used as a solution in Cremophore buffer (i.e. physiological saline solution containing 10% Cremophore and 1.5% ethanol). Half an hour later a designed amount of the test compound was intraperitoneally administered to the mice. The test compound was used as a solution in physiological saline adjusted to pH 6.5. […] Then, the glutamic-pyruvic acid transaminase (GPT) activity in serum was assayed. The results are shown in Table 1 as a percentage to that of the control group to which only acetaminophen was administered.
Note: Figure is a percentage of blood GPT activity to that of Control
Group (± Standard Deviation (n = 4 - 16)).

[5] = test system: level of liver glutathione; settings: for glutathione level of the liver: fasted mice, acetaminophen 2.5 mmol/kg i.p., test compound 10 mmol/kg one-half hour later
Description: In this example, fasted mice were injected intraperitoneally with acetaminophen (2.5 mmol/kg), and one-half hour later (indicated by arrow in FIG. 3), they were given GSH monomethyl ester, GSH, L-cysteine, L-cysteine methyl ester (10 mmol/kg) or an equivalent volume of 0.15 M NaCl (control). Tissue GSH levels were determined at the indicated intervals on groups (3) of mice; values are means ±S.D.

mice [6] = test system: mice
[7] = test system: glutathione levels of the liver and kidney; test: Glutathione levels of liver and kidney of mice pretreated with buthionine sulfoximine (Example 2); format: in vivo
Source text: Controls were again given saline, with tissue levels of GSH being determined at the indicated intervals. Values are means ±S.D., using groups of 3 mice each.

GSH level in the liver = GSH level in the liver after sublethal acetaminophen (Example 7); format: in vivo; settings: acetaminophen 2.5 mmol/kg i.p.; for GSH level in the liver: starved mice, test compound 10 mmol/kg i.p. half an hour later
Description: Groups of three starved mice were intraperitoneally treated with 2.5 mmol/kg (less than the lethal dose) of acetaminophen, and half an hour later 10 mmol/kg of the test compound was intraperitoneally administered to the mice. […] When other thiols such as L-cysteine and L-cysteine methyl ester were administered under the same conditions, the GSH level in the liver was markedly low.

mice [8] = test: Survival of starved mice after lethal dose of acetaminophen (Example 8); format: in vivo; settings: acetaminophen 5 mmol/kg i.p., test compound 10 mmol/kg one hour later, 15 mice, 7 days
Source text: Starved mice were intraperitoneally treated with 5 mmol/kg (lethal dose) of acetaminophen and, one hour later, with 10 mmol/kg of the test compound.

[9] = mice pretreated with 2 mmol/kg buthionine sulfoximine, ester 10 mmol/kg i.p. 4 hours after the inhibitor
[10] = buthionine sulfoximine 2 mmol/kg, before ester

## N[C@@H](CCC(=O)N[C@@H](CS)C(=O)NCC(=O)O)C(=O)O [GSH, L-γ-glutamyl-L-cysteinyl-glycine, reference compound]
[1]
  GSH level in the kidney: slight elevation
  GSH level in the liver: No elevation
[2]
  GSH level in the kidney: 0.560 µmol/g
  GSH level in the liver: 0.582 µmol/g
[3]
  glutathione in the kidney: only a slight effect
  glutathione level of the liver: no effect
[4]; Dosage 0.1 mmol/kg i.p.
  percentage of blood GPT activity to that of Control Group: 105.3 ± 20.1%
[4]; Dosage 0.3 mmol/kg i.p.
  percentage of blood GPT activity to that of Control Group: 68.5 ± 16.3%
[4]; Dosage 1 mmol/kg i.p.
  percentage of blood GPT activity to that of Control Group: 4.2 ± 0.5%

## COC(=O)CNC(=O)[C@H](CS)NC(=O)CC[C@H](N)C(=O)O [glutathione monomethyl ester]
[5]
  glutathione level of the liver: increased markedly
[3]
  glutathione in the kidney: increased substantially
  glutathione level of the liver: increased substantially
Mice [6]; acetaminophen 5 mmole per kilogram, ester 10 mmole per kilogram 1 hour later, 15 mice, 7 days
  fatalities: no fatalities
[7]; [9]
  glutathione level in kidney: substantial increase
  glutathione level in liver: substantial increase

## CCOC(=O)CNC(=O)[C@H](CS)NC(=O)CC[C@H](N)C(=O)O [glutathione monoethyl ester, L-γ-Glutamyl-L Cysteinyl Glycyl Ethyl Ester]
[3]; comparison of monoethyl with monomethyl ester
  effects on tissue glutathione levels compared with glutathione monomethyl ester: about the same

## COC(=O)[C@@H](N)CS [L-cysteine methyl ester, reference compound]
GSH level in the liver
  GSH level in the liver: markedly low
[5]
  glutathione level of the liver: much less

## N[C@@H](CS)C(=O)O [L-cysteine, reference compound]
GSH level in the liver
  GSH level in the liver: markedly low
[5]
  glutathione level of the liver: much less

## CC(C)OC(=O)CNC(=O)[C@H](CS)NC(=O)CC[C@H](N)C(=O)O [GSH monoisopropyl ester, Isopropyl γ-L-glutamyl-L-cysteinylglycinate]
[1]
  GSH level in the kidney: substantial elevation
  GSH level in the liver: substantial elevation
Mice [8]
  survival: survived
[2]
  GSH level in the kidney: more than 2.0 μmol/g
  GSH level in the liver: more than 1.0 μmol/g
GSH level in the liver
  GSH level in the liver: marked elevation
[4]; Dosage 0.01 mmol/kg i.p.
  percentage of blood GPT activity to that of Control Group: 75.2 ± 15.0%
[4]; Dosage 0.03 mmol/kg i.p.
  percentage of blood GPT activity to that of Control Group: 51.2 ± 15.6%
[4]; Dosage 0.1 mmol/kg i.p.
  percentage of blood GPT activity to that of Control Group: 19.8 ± 7.9%
[4]; Dosage 0.3 mmol/kg i.p.
  percentage of blood GPT activity to that of Control Group: 8.8 ± 3.5%
[4]; Dosage 1 mmol/kg i.p.
  percentage of blood GPT activity to that of Control Group: 3.8 ± 0.5%

## CCCCCCOC(=O)CNC(=O)[C@H](CS)NC(=O)CC[C@H](N)C(=O)O [GSH mono-n-hexyl ester, n-Hexyl γ-L-glutamyl-L-cysteinylglycinate]
[1]
  GSH level in the kidney: substantial elevation
  GSH level in the liver: substantial elevation
Mice [8]
  survival: survived
[2]
  GSH level in the kidney: more than 2.0 μmol/g
  GSH level in the liver: more than 1.0 μmol/g
GSH level in the liver
  GSH level in the liver: marked elevation
[4]; Dosage 0.01 mmol/kg i.p.
  percentage of blood GPT activity to that of Control Group: 100.6 ± 31.3%
[4]; Dosage 0.03 mmol/kg i.p.
  percentage of blood GPT activity to that of Control Group: 82.3 ± 33.5%
[4]; Dosage 0.1 mmol/kg i.p.
  percentage of blood GPT activity to that of Control Group: 60.6 ± 15.8%
[4]; Dosage 0.3 mmol/kg i.p.
  percentage of blood GPT activity to that of Control Group: 13.2 ± 0.3%
[4]; Dosage 1 mmol/kg i.p.
  percentage of blood GPT activity to that of Control Group: 3.0 ± 0.3%

## CCCCS(=N)(=O)CCC(N)C(=O)O (centres unmarked) [buthionine sulfoximine, reference compound]
[7]; [10]
  glutathione level of the kidney after the inhibitor: decreased to a very low value
  glutathione level of the liver after the inhibitor: decreased to a very low value

## CC(=O)Nc1ccc(O)cc1 [acetaminophen, reference compound]
GSH level in the liver; control group given 0.15 M saline
  GSH level in the liver after acetaminophen alone: Marked fall
[5]; sublethal dose 2.5 mmol/kg i.p., control given 0.15 M NaCl
  level of liver glutathione after acetaminophen alone: marked decrease
Mice [6]; 5 mmole per kilogram, 40 mice, within 7 days
  lethality of acetaminophen alone: all of the mice died

## CC(C)COC(=O)CNC(=O)[C@H](CS)NC(=O)CC[C@H](N)C(=O)O [GSH monoisobutyl ester, Isobutyl γ-L-glutamyl-L-cysteinylglycinate]
[1]
  GSH level in the kidney: substantial elevation
  GSH level in the liver: substantial elevation
Mice [8]
  survival: survived
[2]
  GSH level in the kidney: more than 2.0 μmol/g
  GSH level in the liver: more than 1.0 μmol/g
GSH level in the liver
  GSH level in the liver: marked elevation
[4]; Dosage 0.01 mmol/kg i.p.
  percentage of blood GPT activity to that of Control Group: 84.1 ± 13.0%
[4]; Dosage 0.1 mmol/kg i.p.
  percentage of blood GPT activity to that of Control Group: 44.8 ± 14.8%
[4]; Dosage 1 mmol/kg i.p.
  percentage of blood GPT activity to that of Control Group: 3.6 ± 0.4%
